{"source": "paper PMC12396409", "about": "“Screening and hit evaluation of a microbial metabolite library against the pathogenic Plasmodium falciparum and Toxoplasma gondii parasites” (International Journal for Parasitology: Drugs and Drug …, 2025)", "key": {"[1]": {"system": "P. falciparum 3D7 parasites", "assay": "P. falciparum growth inhibition assay, 2-cycle (120 h treatment), delayed-death screen and dose-response", "type": "cell-based, Plasmodium falciparum"}, "[2]": {"system": "P. falciparum 3D7 parasites", "assay": "P. falciparum growth inhibition assay, 1-cycle (72 h treatment), SYBR DNA staining (library screen at 2 μg/mL and dose-response)", "type": "cell-based, Plasmodium falciparum"}, "[3]": {"system": "T. gondii RH strain (RH-Tub-eYFP) tachyzoites", "assay": "microbe, parasite or virus in culture", "type": "cell-based, Toxoplasma gondii", "conditions": "72 h, 72 h; for percent parasite growth at 2 µg/mL: Toxoplasma gondii"}, "[4]": {"conditions": "library screen at 2 μg/mL, 120 h, % growth, replicate 1"}, "[5]": {"conditions": "library screen at 2 μg/mL, 120 h, % growth, replicate 2"}, "[6]": {"conditions": "library screen at 2 μg/mL, 72 h, % growth, replicate 1"}, "[7]": {"conditions": "library screen at 2 μg/mL, 72 h, % growth, replicate 2"}, "[8]": {"conditions": "library screen at 2 μg/mL, % growth, replicate 1"}, "[9]": {"conditions": "library screen at 2 μg/mL, % growth, replicate 2"}, "[10]": {"conditions": "T. gondii, screen at 2 μg/mL, replicate 1, read-out: Tg_72h_%Growth_Rep1"}, "[11]": {"conditions": "T. gondii, screen at 2 μg/mL, replicate 2, read-out: Tg_72h_%Growth_Rep2"}}, "note": "Read-outs that look alike come from different tables or passages of the source. Where a SMILES comes first, the peptide text is derived from it. [ ]: non-standard residue; d: D form. Phe(ol) = N[C@H](CO)Cc1ccccc1; Aib = CC(C)(N)C(=O)O"}
{"compound": "O=C1C=C2C=C[C@@H]3C[C@@]2(O1)[C@H]1CCCCN31", "note": "[Securinine]", "values": [{"measurement": "activity at 2 µg/mL", "setting": "[1]; Plasmodium falciparum, 3D7, 120 h, P. falciparum, 120 h, parasite screen 2 μg/mL, % growth, replicate 1, read-out: Pf_120h_%Growth_Rep1", "value": 14.2, "unit": "%"}, {"measurement": "activity at 2 µg/mL", "setting": "[1]; Plasmodium falciparum, 3D7, 120 h, P. falciparum, 120 h, parasite screen 2 μg/mL, % growth, replicate 2, read-out: Pf_120h_%Growth_Rep2", "value": 10.7, "unit": "%"}, {"measurement": "activity at 2 µg/mL", "setting": "[2]; Plasmodium falciparum, 3D7, 72 h, P. falciparum, 72 h, parasite screen 2 μg/mL, % growth, replicate 1, read-out: Pf_72h_%Growth_Rep1", "value": 19.3, "unit": "%"}, {"measurement": "activity at 2 µg/mL", "setting": "[2]; Plasmodium falciparum, 3D7, 72 h, P. falciparum, 72 h, parasite screen 2 μg/mL, % growth, replicate 2, read-out: Pf_72h_%Growth_Rep2", "value": 10.7, "unit": "%"}, {"measurement": "percent parasite growth at 2 µg/mL", "setting": "[3]; T. gondii, parasite screen 2 μg/mL, % growth, replicate 1, read-out: Tg_72h_%Growth_Rep1", "value": 46.1, "unit": "%"}, {"measurement": "percent parasite growth at 2 µg/mL", "setting": "[3]; T. gondii, parasite screen 2 μg/mL, % growth, replicate 2, read-out: Tg_72h_%Growth_Rep2", "value": 60.2, "unit": "%"}]}
{"compound": "CC(=O)NC(C)(C)C(=O)N1CCC[C@H]1C(=O)NC(C)(C)C(=O)N[C@@H](C)C(=O)NC(C)(C)C(=O)N[C@@H](C)C(=O)N[C@@H](CCC(N)=O)C(=O)NC(C)(C)C(=O)N[C@H](C(=O)NC(C)(C)C(=O)NCC(=O)N[C@@H](CC(C)C)C(=O)NC(C)(C)C(=O)N1CCC[C@H]1C(=O)N[C@H](C(=O)NC(C)(C)C(=O)NC(C)(C)C(=O)N[C@@H](CCC(N)=O)C(=O)N[C@@H](CCC(N)=O)C(=O)N[C@H](CO)Cc1ccccc1)C(C)C)C(C)C", "note": "[Alamethicin F50] (Ac-[Aib]P[Aib]A[Aib]AQ[Aib]V[Aib]GL[Aib]PV[Aib][Aib]QQ[Phe(ol)])", "values": [{"measurement": "3) Fold change (72 h/120 h)", "setting": "[1]; P. falciparum, growth at 72 h / growth at 120 h, 2 μg/mL", "value": 6.4}, {"measurement": "activity at 2 µg/mL", "setting": "[1]; Plasmodium falciparum, 3D7; P. falciparum, 2 μg/mL, 120 h; read-out: 2) Growth (%) at 120 h", "value": 3.45, "unit": "%"}, {"measurement": "activity at 2 µg/mL", "setting": "[1]; Plasmodium falciparum, 3D7, library screen at 2 μg/mL, 120 h, % growth, replicate 1, read-out: Pf_120h_%Growth_Rep1", "value": 8.66, "unit": "%"}, {"measurement": "activity at 2 µg/mL", "setting": "[1]; Plasmodium falciparum, 3D7, library screen at 2 μg/mL, 120 h, % growth, replicate 2, read-out: Pf_120h_%Growth_Rep2", "value": -1.76, "unit": "%"}, {"measurement": "activity at 2 µg/mL", "setting": "[2]; Plasmodium falciparum, 3D7; P. falciparum, 2 μg/mL, 72 h; read-out: 1) Growth (%) at 72 h", "value": 22, "unit": "%"}, {"measurement": "activity at 2 µg/mL", "setting": "[2]; Plasmodium falciparum, 3D7, library screen at 2 μg/mL, 72 h, % growth, replicate 1, read-out: Pf_72h_%Growth_Rep1", "value": 21.9, "unit": "%"}, {"measurement": "activity at 2 µg/mL", "setting": "[2]; Plasmodium falciparum, 3D7, library screen at 2 μg/mL, 72 h, % growth, replicate 2, read-out: Pf_72h_%Growth_Rep2", "value": 22.1, "unit": "%"}, {"measurement": "percent parasite growth at 2 µg/mL", "setting": "[3]; library screen at 2 μg/mL, % growth, replicate 1, read-out: Tg_72h_%Growth_Rep1", "value": 92.3, "unit": "%"}, {"measurement": "percent parasite growth at 2 µg/mL", "setting": "[3]; library screen at 2 μg/mL, % growth, replicate 2, read-out: Tg_72h_%Growth_Rep2", "value": 87.6, "unit": "%"}]}
{"compound": "CCCCCCC(C)C/C(C)=C\\C(/C=C(C)/C=C/C(O)C(C)(C)c1cc(O)c([C@@H]2O[C@H](CO)C[C@H](O)[C@H]2O)c(=O)o1)CO", "note": "(stereo partly drawn) [Fusapyrone]", "values": [{"measurement": "Pf_120h_%Growth_Rep1", "setting": "[1]; [4]", "value": 92.76, "unit": "%"}, {"measurement": "Pf_120h_%Growth_Rep2", "setting": "[1]; [5]", "value": 105.39, "unit": "%"}, {"measurement": "Pf_72h_%Growth_Rep1", "setting": "[2]; [6]", "value": 90.44, "unit": "%"}, {"measurement": "Pf_72h_%Growth_Rep2", "setting": "[2]; [7]", "value": 35.77, "unit": "%"}, {"measurement": "Tg_72h_%Growth_Rep1", "setting": "[3]; [8]", "value": 113.82, "unit": "%"}, {"measurement": "Tg_72h_%Growth_Rep2", "setting": "[3]; [9]", "value": 93.81, "unit": "%"}]}
{"compound": "CC1=C2C(=CO[C@H](C)[C@H]2C)C(O)=C(C(=O)O)C1=O", "note": "[Citrinin]", "values": [{"measurement": "activity at 2 µg/mL", "setting": "[1]; Plasmodium falciparum, 3D7, 120 h, P. falciparum, 120 h, screen at 2 μg/mL, replicate 1, read-out: Pf_120h_%Growth_Rep1", "value": 138, "unit": "%"}, {"measurement": "activity at 2 µg/mL", "setting": "[1]; Plasmodium falciparum, 3D7, 120 h, P. falciparum, 120 h, screen at 2 μg/mL, replicate 2, read-out: Pf_120h_%Growth_Rep2", "value": 82.5, "unit": "%"}, {"measurement": "activity at 2 µg/mL", "setting": "[2]; Plasmodium falciparum, 3D7, 72 h, P. falciparum, 72 h, screen at 2 μg/mL, replicate 1, read-out: Pf_72h_%Growth_Rep1", "value": 89.1, "unit": "%"}, {"measurement": "activity at 2 µg/mL", "setting": "[2]; Plasmodium falciparum, 3D7, 72 h, P. falciparum, 72 h, screen at 2 μg/mL, replicate 2, read-out: Pf_72h_%Growth_Rep2", "value": 84, "unit": "%"}, {"measurement": "percent parasite growth at 2 µg/mL", "setting": "[3]; [10]", "value": 87.8, "unit": "%"}, {"measurement": "percent parasite growth at 2 µg/mL", "setting": "[3]; [11]", "value": 82, "unit": "%"}]}
{"compound": "Elaiophylin", "values": [{"measurement": "Pf_120h_%Growth_Rep1", "setting": "[1]; [4]", "value": 18.08, "unit": "%"}, {"measurement": "Pf_120h_%Growth_Rep2", "setting": "[1]; [5]", "value": 22.72, "unit": "%"}, {"measurement": "Pf_72h_%Growth_Rep1", "setting": "[2]; [6]", "value": 6.63, "unit": "%"}, {"measurement": "Pf_72h_%Growth_Rep2", "setting": "[2]; [7]", "value": 7.41, "unit": "%"}, {"measurement": "Tg_72h_%Growth_Rep1", "setting": "[3]; [8]", "value": -0.18, "unit": "%"}, {"measurement": "Tg_72h_%Growth_Rep2", "setting": "[3]; [9]", "value": 0.99, "unit": "%"}]}
{"compound": "Cc1ncc(-c2c[nH]c3ccccc23)o1", "note": "[BIA-P1070]", "values": [{"measurement": "Pf_120h_%Growth_Rep1", "setting": "[1]; P. falciparum 3D7, 120 h, parasite screen at 2 μg/mL, % growth, replicate 1", "value": 92.74, "unit": "%"}, {"measurement": "Pf_120h_%Growth_Rep2", "setting": "[1]; P. falciparum 3D7, 120 h, parasite screen at 2 μg/mL, % growth, replicate 2", "value": 139.06, "unit": "%"}, {"measurement": "Pf_72h_%Growth_Rep1", "setting": "[2]; P. falciparum 3D7, 72 h, parasite screen at 2 μg/mL, % growth, replicate 1", "value": 82.71, "unit": "%"}, {"measurement": "Pf_72h_%Growth_Rep2", "setting": "[2]; P. falciparum 3D7, 72 h, parasite screen at 2 μg/mL, % growth, replicate 2", "value": 88.10, "unit": "%"}, {"measurement": "Tg_72h_%Growth_Rep1", "setting": "[3]; T. gondii, parasite screen at 2 μg/mL, % growth, replicate 1", "value": 139.44, "unit": "%"}, {"measurement": "Tg_72h_%Growth_Rep2", "setting": "[3]; T. gondii, parasite screen at 2 μg/mL, % growth, replicate 2", "value": 88.28, "unit": "%"}]}
{"compound": "CCCCCCCCCCC[C@@H](C[C@@H]1OC(=O)[C@H]1CCCCCC)OC(=O)[C@H](CC(C)C)NC=O", "note": "[Tetrahydrolipstatin]", "values": [{"measurement": "activity at 2 µg/mL", "setting": "[1]; Plasmodium falciparum, 3D7, P. falciparum, 120 h, screen at 2 μg/mL, replicate 1, read-out: Pf_120h_%Growth_Rep1", "value": 171, "unit": "%"}, {"measurement": "activity at 2 µg/mL", "setting": "[1]; Plasmodium falciparum, 3D7, P. falciparum, 120 h, screen at 2 μg/mL, replicate 2, read-out: Pf_120h_%Growth_Rep2", "value": 93.3, "unit": "%"}, {"measurement": "activity at 2 µg/mL", "setting": "[2]; Plasmodium falciparum, 3D7, P. falciparum, 72 h, screen at 2 μg/mL, replicate 1, read-out: Pf_72h_%Growth_Rep1", "value": 74.2, "unit": "%"}, {"measurement": "activity at 2 µg/mL", "setting": "[2]; Plasmodium falciparum, 3D7, P. falciparum, 72 h, screen at 2 μg/mL, replicate 2, read-out: Pf_72h_%Growth_Rep2", "value": 88.8, "unit": "%"}, {"measurement": "percent parasite growth at 2 µg/mL", "setting": "[3]; [10]", "value": 88.5, "unit": "%"}, {"measurement": "percent parasite growth at 2 µg/mL", "setting": "[3]; [11]", "value": 98.4, "unit": "%"}]}
{"compound": "C/C1=C\\[C@H](C)C[C@H](C)[C@H](Cc2cnco2)OC(=O)/C(C)=C/CC[C@H](C)[C@H](Cc2cnco2)OC1=O", "note": "[Conglobatin B]", "values": [{"measurement": "Pf_120h_%Growth_Rep1", "setting": "[1]; P. falciparum, 120 h, screen at 2 μg/mL, replicate 1", "value": 80.47, "unit": "%"}, {"measurement": "Pf_120h_%Growth_Rep2", "setting": "[1]; P. falciparum, 120 h, screen at 2 μg/mL, replicate 2", "value": 86.62, "unit": "%"}, {"measurement": "Pf_72h_%Growth_Rep1", "setting": "[2]; P. falciparum, 72 h, screen at 2 μg/mL, replicate 1", "value": 81.21, "unit": "%"}, {"measurement": "Pf_72h_%Growth_Rep2", "setting": "[2]; P. falciparum, 72 h, screen at 2 μg/mL, replicate 2", "value": 81.29, "unit": "%"}, {"measurement": "Tg_72h_%Growth_Rep1", "setting": "[3]; T. gondii, screen at 2 μg/mL, replicate 1", "value": 184.82, "unit": "%"}, {"measurement": "Tg_72h_%Growth_Rep2", "setting": "[3]; T. gondii, screen at 2 μg/mL, replicate 2", "value": 99.16, "unit": "%"}]}
